# Experimental data taken from BindingDB's records for doi:10.1016/j.bioorg.2016.08.005 (Comsats Institute of Information Technology, 2016).
# How the values were obtained:
# [1] = target: Aldo-keto reductase family 1 member A1 (Bos taurus, UniProt Q3ZCJ2); test: ALR1 in vitro Inhibition Assay; conditions: pH 6.2
# Protocol: The assay results were obtained at 340 nm and ALR1 inhibitory activity was measured with the absorbance change at this respective wavelength. Each well contains 200 µL of assay mixture containing potassium phosphate buffer 100 mM at pH 6.2 with test sample 20 µL of 10 mM, 70 µL enzyme preparation and 40 µL of10 mM sodium D-glucoronic acid as a substrate. This mixture was incubated at 37 °C for 5 min and 50 µL of 0.1 mM NADPH as a cofactor was added and the read was obtained at 340 nm. The assay mixture was incubated again at 37 °C for 10 min and the read was taken at the respective UV range in ELIZA plate reader. As positive and negative control, 10 mM valproic acid (20 µL) and buffer solution (20 µL) were used [Biol. Chem., 240:877-882].
# [2] = target: Aldo-keto reductase family 1 member B1 [K65Q] (Bos taurus, UniProt P16116, K65Q); test: ALR2 in vitro Inhibition Assay
# Protocol: The activity of ALR2 enzyme was determined at 340 nm in UV spectrophotometer that depends upon the measurement of NADPH consumption. Each well of the 96-well plate contains 200 µL of assay mixture consisting of potassium phosphate buffer 100 mMat 6.2 pH, 20 µL of 10 mM test sample, 70 µL of enzyme preparation and substrate D,L-glyceraldehyde (40 µL), all mixture was incubated at 37 °C for 5 min and then 0.1 mM NADPH (50 µL) was added as a cofactor in the enzyme reaction and read was measured at 340 nm and followed by incubation at 37 °C for 10 min and thenabsorbance was measured in Eliza plate reader at respective wavelength. Negative and positive control used were 10 m M buffer (20 µL) and 10 mM sulindac (20 µL) [Med. Chem. Commun., 5:1371-1380].
# Aldo-keto reductase family 1 member A1, sequence (Q3ZCJ2 whole entry): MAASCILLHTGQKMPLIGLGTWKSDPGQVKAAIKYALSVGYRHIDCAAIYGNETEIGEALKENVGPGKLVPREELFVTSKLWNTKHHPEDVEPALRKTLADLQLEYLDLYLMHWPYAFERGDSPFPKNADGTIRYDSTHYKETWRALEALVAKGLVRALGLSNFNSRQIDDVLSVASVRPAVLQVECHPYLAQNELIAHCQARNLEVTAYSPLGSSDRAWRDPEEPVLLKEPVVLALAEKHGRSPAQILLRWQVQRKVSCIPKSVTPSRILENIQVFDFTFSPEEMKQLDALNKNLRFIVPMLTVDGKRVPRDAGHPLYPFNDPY
IC50 [1],IC50 [2],Compound
17.1 µM,,O=c1oc2ccccc2cc1-c1csc(NN=C(c2ccccc2)c2ccccc2)n1 [3-(2-(2-(diphenylmethylene)hydrazinyl)thiazol-4-yl)-2Hchromen-2-one (6n)]
,0.31 µM,"O=c1oc2ccccc2cc1-c1nn(CNc2ccccc2Cl)c(=S)o1 [3-(4-((2-Chlorophenylamino)methyl)-5-thioxo-4,5-dihydro-1,3,4-oxadiazol-2-yl)-2H-chromen-2-one (11d)]"
15.2 µM,,"O=c1oc2ccccc2cc1-c1nn(CNc2cccc(Cl)c2)c(=S)o1 [3-(4-((3-Chlorophenylamino)methyl)-5-thioxo-4,5-dihydro-1,3,4-oxadiazol-2-yl)-2H-chromen-2-one (11e)]"
5.68 µM,3.39 µM,"O=c1oc2ccccc2cc1-c1nn(CNc2ccc(Cl)cc2)c(=S)o1 [3-(4-((4-Chlorophenylamino)methyl)-5-thioxo-4,5-dihydro-1,3,4-oxadiazol-2-yl)-2H-chromen-2-one (11f)]"
3.36 µM,57.5 µM,"CCCCNCn1nc(-c2cc3ccccc3oc2=O)oc1=S [3-(4-((Butylamino)methyl)-5-thioxo-4,5-dihydro-1,3,4-oxadiazol-2-yl)-2H-chromen-2-one (11b)]"
,3.39 µM,"O=c1oc2ccccc2cc1-c1nn(CN(c2ccccc2)c2ccccc2)c(=S)o1 [3-(4-((Diphenylamino)methyl)-5-thioxo-4,5-dihydro-1,3,4-oxadiazol-2-yl)-2H-chromen-2-one (11h)]"
7.11 µM,,"Cc1ccc(NCn2nc(-c3cc4ccccc4oc3=O)oc2=S)cc1 [3-(4-((p-Toluidino)methyl)-5-thioxo-4,5-dihydro-1,3,4-oxadiazol-2-yl)-2H-chromen-2-one (11c)]"
,0.34 µM,"O=c1oc2ccccc2cc1-c1nn(CN2CCOCC2)c(=S)o1 [3-(4-(Morpholinomethyl)-5-thioxo-4,5-dihydro-1,3,4-oxadiazol-2-yl)-2H-chromen-2-one (11g)]"
34.7 µM,0.16 µM,C/C(=N\Nc1nc(-c2cc3ccccc3oc2=O)cs1)c1ccccc1Br [(E)-3-(2-(2-(1-(2-bromophenyl)ethylidene)hydrazinyl)thiazol-4-yl)-2H-chromen-2-one (6c)]
57.4 µM,,C/C(=N\Nc1nc(-c2cc3ccccc3oc2=O)cs1)c1ccccc1F [(E)-3-(2-(2-(1-(2-fluorophenyl)ethylidene)hydrazinyl)thiazol-4-yl)-2H-chromen-2-one (6f)]
5.47 µM,,COc1ccc(/C(C)=N/Nc2nc(-c3cc4ccccc4oc3=O)cs2)c(O)c1 [(E)-3-(2-(2-(1-(2-hydroxy-4-methoxyphenyl)ethylidene)hydrazinyl)thiazol-4-yl)-2H-chromen-2-one (6j)]
93.6 µM,6.35 µM,C/C(=N\Nc1nc(-c2cc3ccccc3oc2=O)cs1)c1cccc(Br)c1 [(E)-3-(2-(2-(1-(3-bromophenyl)ethylidene)hydrazinyl)thiazol-4-yl)-2H-chromen-2-one (6d)]
1.08 µM,,COc1ccc(/C(C)=N/Nc2nc(-c3cc4ccccc4oc3=O)cs2)cc1F [(E)-3-(2-(2-(1-(3-fluoro-4-methoxyphenyl)ethylidene)hydrazinyl)thiazol-4-yl)-2H-chromen-2-one (6i)]
14.4 µM,,COc1ccc(/C(C)=N/Nc2nc(-c3cc4ccccc4oc3=O)cs2)cc1I [(E)-3-(2-(2-(1-(3-iodo-4-methoxyphenyl)ethylidene)hydrazinyl)thiazol-4-yl)-2H-chromen-2-one (6l)]
1.71 µM,0.11 µM,C/C(=N\Nc1nc(-c2cc3ccccc3oc2=O)cs1)c1ccc(Br)cc1 [(E)-3-(2-(2-(1-(4-bromophenyl)ethylidene)hydrazinyl)thiazol-4-yl)-2H-chromen-2-one (6e)]
1.41 µM,1.76 µM,COc1cc(/C(C)=N/Nc2nc(-c3cc4ccccc4oc3=O)cs2)ccc1O [(E)-3-(2-(2-(1-(4-hydroxy-3-methoxyphenyl)ethylidene)hydrazinyl)thiazol-4-yl)-2H-chromen-2-one (6k)]
7.62 µM,,COc1ccc(/C(C)=N/Nc2nc(-c3cc4ccccc4oc3=O)cs2)cc1 [(E)-3-(2-(2-(1-(4-methoxyphenyl)ethylidene)hydrazinyl)thiazol-4-yl)-2H-chromen-2-one (6h)]
2.94 µM,0.12 µM,"C/C(=N\Nc1nc(-c2cc3ccccc3oc2=O)cs1)c1ccccc1 [Coumarin-thiazole series I, 6a]"
8.91 µM,,"C/C(=N\Nc1nc(-c2cc3ccccc3oc2=O)cs1)c1cc2ccccc2oc1=O [Coumarin-thiazole series I, 6o]"
,0.293 µM,CC1=C(CC(=O)O)c2cc(F)ccc2/C1=C\c1ccc([S@@+](C)[O-])cc1 [cis-5-Fluoro-2-methyl-1-((p-methylsulfinyl)benzylidene)indene-3-acetic acid]
